Patent US20240158446A1, “CYCLIC COMPOUND HAVING SELECTIVE INHIBITORY ACTION ON KRAS OVER HRAS AND NRAS” (CHUGAI SEIYAKU KABUSHIKI KAISHA, priority 2021, published 2024)
Read-outs that look alike come from different tables or passages of the source. *1 amine or outer side, *2 acyl side, *3 side chain or, on linkers, in order; H or OH if unused. Where a SMILES comes first, the peptide text is derived from it. Bridges are numbered along the chain shown (N, C = ends). [ ]: non-standard residue; d: D form. The star is where a group is joined. hPhe(3,5-F2-4-CF3) = N[C@@H](CCc1cc(F)c(C(F)(F)F)c(F)c1)C(=O)O; hPhe(3-Cl-4-CF3) = N[C@@H](CCc1ccc(C(F)(F)F)c(Cl)c1)C(=O)O; NPrPhe(4-CF3) = CCCN[C@@H](Cc1ccc(C(F)(F)F)cc1)C(=O)O; NMeGly(cPent) = CN[C@H](C(=O)O)C1CCCC1; Pro(4,4-F2) = O=C(O)[C@@H]1CC(F)(F)CN1; X11 = CCC[C@](C)(N[*:1])C(=O)[*:2]; NMeD = CN[C@@H](CC(=O)O)C(=O)O; NMeL = CN[C@@H](CC(C)C)C(=O)O; Pip = O=C(O)[C@@H]1CCCCN1; Morpholide = C1CN(*)CCO1; Ac5c = NC1(C(=O)O)CCCC1; Aze = O=C(O)[C@@H]1CCN1; Ac4c = NC1(C(=O)O)CCC1; Sar = CNCC(=O)O

Columns and labels:
[1] = target: GDP-bound NRAS wild-type protein (Homo sapiens, UniProt P01111); assay: Binding to NRAS by surface plasmon resonance (SPR), Single Cycle Kinetics; details: for NRAS/KRAS (ratio of KD value for NRAS to KD value for KRAS) / NRAS/KRAS (ratio of KD value with respect to NRAS to KD value with respect to KRAS): SPR, GDP-bound NRAS wild-type protein vs GDP-bound KRAS wild-type protein; for NRAS/KRAS (ratio of KD value with respect to GDP-bound NRAS wild-type protein to KD value with respect to KRAS): SPR KD ratio NRAS/KRAS, class symbols
GDP-bound NRAS wild-type protein, sequence (P01111 whole entry): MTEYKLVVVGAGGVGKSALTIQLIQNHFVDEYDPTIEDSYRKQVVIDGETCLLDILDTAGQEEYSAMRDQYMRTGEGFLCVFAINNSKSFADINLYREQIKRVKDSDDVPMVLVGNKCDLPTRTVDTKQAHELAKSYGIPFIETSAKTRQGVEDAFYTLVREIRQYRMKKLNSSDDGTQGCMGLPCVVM

[2] = test system: human lung cancer strain NCI-H441;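 note: cell proliferation inhibition after four days measured by CellTiter-Glo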
[3] = target: GDP-bound HRAS wild-type protein (Homo sapiens, UniProt P01112); assay: Binding to HRAS by surface plasmon resonance (SPR), Single Cycle Kinetics; details: for HRAS/KRAS (ratio of KD value for HRAS to KD value for KRAS) / HRAS/KRAS (ratio of KD value with respect to HRAS to KD value with respect to KRAS): SPR, GDP-bound HRAS wild-type protein vs GDP-bound KRAS wild-type protein; for HRAS/KRAS (ratio of KD value with respect to GDP-bound HRAS wild-type protein to KD value with respect to KRAS): SPR KD ratio HRAS/KRAS, class symbols
GDP-bound HRAS wild-type protein, sequence (P01112 whole entry): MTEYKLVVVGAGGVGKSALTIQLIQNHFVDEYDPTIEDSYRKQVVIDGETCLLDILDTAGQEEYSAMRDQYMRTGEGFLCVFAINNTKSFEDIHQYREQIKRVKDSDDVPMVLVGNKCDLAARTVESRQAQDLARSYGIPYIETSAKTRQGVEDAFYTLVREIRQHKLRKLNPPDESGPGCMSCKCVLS

SMILES	IC50 [2]	IC50 ([2]; read-out: NCI-H441 IC50, NCI-H441 cells, four days, CellTiter-Glo)	NRAS/KRAS (ratio of KD value for NRAS to KD value for KRAS) [1]	HRAS/KRAS (ratio of KD value for HRAS to KD value for KRAS) [3]	NRAS/KRAS (ratio of KD value with respect to NRAS to KD value with respect to KRAS) [1]	HRAS/KRAS (ratio of KD value with respect to HRAS to KD value with respect to KRAS) [3]	NRAS/KRAS (ratio of KD value with respect to GDP-bound NRAS wild-type protein to KD value with respect to KRAS) [1]	HRAS/KRAS (ratio of KD value with respect to GDP-bound HRAS wild-type protein to KD value with respect to KRAS) [3]
CCCN1C(=O)CN(C)C(=O)[C@@H]2CCN2C(=O)[C@H]([C@@H](C)CC)NC(=O)[C@H](CC(C)C)N(C)C(=O)C[C@@H](C(=O)N(C)C)NC(=O)[C@H](C2CCCC2)N(C)C(=O)C2(CCC2)NC(=O)[C@@H]2CC(F)(F)CN2C(=O)[C@H](CCc2ccc(C(F)(F)F)c(Cl)c2)NC(=O)CN(C)C(=O)[C@@H]1Cc1ccc(C(F)(F)F)cc1 [PP0376] ([NMeL]I[Aze][Sar][NPrPhe(4-CF3)][Sar][hPhe(3-Cl-4-CF3)][Pro(4,4-F2)][Ac4c][NMeGly(cPent)]D-NMe2; lactam N-11)	114 nM	–	B (a compound having 3 or more and less than 10 is denoted as B)	B (a compound having 3 or more and less than 10 is denoted as B)	–	–	–	–
CCCN1C(=O)CN(C)C(=O)[C@@H]2CCN2C(=O)[C@H]([C@@H](C)CC)NC(=O)[C@H](CC(C)C)N(C)C(=O)C[C@@H](C(=O)N2CCOCC2)N(C)C(=O)[C@H](C2CCCC2)N(C)C(=O)[C@](C)(CCC)NC(=O)[C@@H]2CCCN2C(=O)[C@H](CCc2cc(F)c(C(F)(F)F)c(F)c2)NC(=O)CN(C)C(=O)[C@@H]1Cc1ccc(C(F)(F)F)cc1 [PP0775] ([NMeL]I[Aze][Sar][NPrPhe(4-CF3)][Sar][hPhe(3,5-F2-4-CF3)]P[X11][NMeGly(cPent)][NMeD]-Morpholide; lactam N-11)	417 nM	–	–	–	B (a compound having 3 or more and less than 10 is denoted as B)	B (a compound having 3 or more and less than 10 is denoted as B)	–	–
CCO[C@@H]1C[C@H]2C(=O)NC3(CC(C)(C)C3)C(=O)N(C)[C@@H](C3CCCC3)C(=O)N(C)[C@H](C(=O)N(C)C)CC(=O)N(C)[C@@H](CC(C)C)C(=O)N[C@@H]([C@@H](C)CC)C(=O)N(C)CC(=O)N(C)[C@H]3C/C=C\CCN(C3=O)[C@@H](Cc3ccc(C(C)(F)F)cc3)C(=O)N(C)CC(=O)N[C@@H](CCc3ccc(C(F)(F)F)c(OC)c3)C(=O)N2C1 [PP2690]	–	3 nM	–	–	–	–	AA (a compound having 20 or more is denoted as AA)	A (a compound having 10 or more and less than 20 is denoted as A)
CCCN1C(=O)CN(C)C(=O)[C@@H]2CCN2C(=O)[C@H]([C@@H](C)CC)NC(=O)[C@H](CC(C)C)N(C)C(=O)C[C@@H](C(=O)N2CCOCC2)NC(=O)[C@H](C2CCCC2)N(C)C(=O)C2(CCC2)NC(=O)[C@@H]2CC(F)(F)CN2C(=O)[C@H](CCc2ccc(C(F)(F)F)c(Cl)c2)NC(=O)CN(C)C(=O)[C@@H]1Cc1ccc(C(F)(F)F)cc1 [PP0340] ([NMeL]I[Aze][Sar][NPrPhe(4-CF3)][Sar][hPhe(3-Cl-4-CF3)][Pro(4,4-F2)][Ac4c][NMeGly(cPent)]D-Morpholide; lactam N-11)	177 nM	–	B (a compound having 3 or more and less than 10 is denoted as B)	B (a compound having 3 or more and less than 10 is denoted as B)	–	–	–	–
CCO[C@@H]1C[C@H]2C(=O)NC3(CCC3)C(=O)N(C)[C@@H](C3CCCC3)C(=O)N(C)[C@H](C(=O)N3CCOCC3)CC(=O)N(C)[C@@H](Cc3cscn3)C(=O)N[C@@H]([C@@H](C)CC)C(=O)N(C)CC(=O)N(C)[C@H]3CCCCCN(C3=O)[C@@H](Cc3ccc(C(F)(F)F)cc3)C(=O)N(C)CC(=O)N[C@@H](CCc3cc(F)c(C(F)(F)F)c(F)c3)C(=O)N2C1 [PP0855]	114 nM	–	B (a compound having 3 or more and less than 10 is denoted as B)	B (a compound having 3 or more and less than 10 is denoted as B)	–	–	–	–
CC[C@H](C)[C@@H]1NC(=O)[C@H](CC(C)C)N(C)C(=O)C[C@@H](C(=O)N(C)C)N(C)C(=O)[C@@H](C2CCCC2)N(C)C(=O)C2(CCCC2)NC(=O)[C@@H]2CCCN2C(=O)[C@H](CCc2ccc(C(F)(F)F)c(Cl)c2)NC(=O)CN(C)C(=O)[C@H](Cc2ccc(C(F)(F)F)cc2)N2CC/C=C(/C)C[C@@H](C2=O)N(C)C(=O)CN(C)C1=O [PP0617]	159 nM	–	–	–	B (a compound having 3 or more and less than 10 is denoted as B)	B (a compound having 3 or more and less than 10 is denoted as B)	–	–

More lines, in order of falling IC50 [2], values ahead:

IC50 [2]	IC50 ([2]; read-out: NCI-H441 IC50, NCI-H441 cells, four days, CellTiter-Glo)	SMILES	NRAS/KRAS (ratio of KD value for NRAS to KD value for KRAS) [1]	HRAS/KRAS (ratio of KD value for HRAS to KD value for KRAS) [3]	NRAS/KRAS (ratio of KD value with respect to NRAS to KD value with respect to KRAS) [1]	HRAS/KRAS (ratio of KD value with respect to HRAS to KD value with respect to KRAS) [3]	NRAS/KRAS (ratio of KD value with respect to GDP-bound NRAS wild-type protein to KD value with respect to KRAS) [1]	HRAS/KRAS (ratio of KD value with respect to GDP-bound HRAS wild-type protein to KD value with respect to KRAS) [3]
83.3 nM	–	CC[C@H](C)[C@@H]1NC(=O)[C@H](CC(C)C)N(C)C(=O)C[C@@H](C(=O)N2CCOCC2)NC(=O)[C@H](C2CCCC2)N(C)C(=O)C2(CCCC2)NC(=O)[C@@H]2CCCN2C(=O)[C@H](CCc2cc(F)c(C(F)(F)F)c(F)c2)NC(=O)CN(C)C(=O)[C@H](Cc2ccc(C(F)(F)F)cc2)N2CCCC[C@@H](C2=O)N(C)C(=O)CN(C)C1=O [PP0541]	–	–	B (a compound having 3 or more and less than 10 is denoted as B)	B (a compound having 3 or more and less than 10 is denoted as B)	–	–
63.4 nM	–	CCC[C@H]1C(=O)N[C@@H]([C@@H](C)CC)C(=O)N(C)CC(=O)N(C)[C@H]2C/C=C\CCN(C2=O)[C@@H](Cc2ccc(C)cc2)C(=O)N(C)CC(=O)N[C@@H](CCc2ccc(C(F)(F)F)c(OC)c2)C(=O)N2C[C@H](OCC)C[C@H]2C(=O)NC2(CC(C)(C)C2)C(=O)N(C)[C@@H](CC(F)(F)F)C(=O)N(C)[C@H](C(=O)N(C)C)CC(=O)N1C [PP3007]	A (a compound having 10 or more and less than 20 is denoted as A)	A (a compound having 10 or more and less than 20 is denoted as A)	–	–	–	–
58.1 nM	–	CCCN1C(=O)CN(C)C(=O)[C@@H]2CCN2C(=O)[C@H]([C@@H](C)CC)NC(=O)[C@H](CC(C)C)N(C)C(=O)C[C@@H](C(=O)N2CCOCC2)N(C)C(=O)[C@H](C2CCCC2)N(C)C(=O)C2(CCC2)NC(=O)[C@@H]2CCCN2C(=O)[C@H](CCc2ccc(C(F)(F)F)c(Cl)c2)NC(=O)CN(C)C(=O)[C@@H]1Cc1ccc(C(F)(F)F)cc1 [PP0402] ([NMeL]I[Aze][Sar][NPrPhe(4-CF3)][Sar][hPhe(3-Cl-4-CF3)]P[Ac4c][NMeGly(cPent)][NMeD]-Morpholide; lactam N-11)	B (a compound having 3 or more and less than 10 is denoted as B)	C (A compound having a KD ratio of 0.1 or more and less than 3 is denoted as C)	–	–	–	–
44.7 nM	–	CCC[C@H]1C(=O)N[C@@H]([C@@H](C)CC)C(=O)N(C)CC(=O)N(C)[C@H]2C/C=C\CCN(C2=O)[C@@H](CC2CCCCC2)C(=O)N(C)CC(=O)N[C@@H](CCc2ccc(C(F)(F)F)c(OC)c2)C(=O)N2C[C@H](OCC)C[C@H]2C(=O)N(C)C2(CCC2)C(=O)N(C)[C@@H](C(CC)CC)C(=O)N(C)[C@H](C(=O)N(C)C)CC(=O)N1C [PP2333]	A (a compound having 10 or more and less than 20 is denoted as A)	A (a compound having 10 or more and less than 20 is denoted as A)	–	–	–	–
29.1 nM	–	CCO[C@@H]1C[C@H]2C(=O)NC3(CCC3)C(=O)N(C)[C@@H](C3CCCC3)C(=O)N(C)[C@H](C(=O)N(C)C)CC(=O)N(C)[C@@H](CC3CCCC3)C(=O)N[C@@H]([C@@H](C)CC)C(=O)N(C)CC(=O)N(C)[C@H]3C/C=C\CCN(C3=O)[C@@H](Cc3ccc(C)cc3)C(=O)N(C)CC(=O)N[C@@H](CCc3ccc(C(F)(F)F)c(C4CC4)c3)C(=O)N2C1 [PP2681]	–	–	–	–	A (a compound having 10 or more and less than 20 is denoted as A)	A (a compound having 10 or more and less than 20 is denoted as A)
26.6 nM	–	CCCN1C(=O)[C@@H]2CCN2C(=O)[C@@H]2CCN2C(=O)[C@H]([C@@H](C)CC)NC(=O)[C@H](CC(C)C)N(C)C(=O)C[C@@H](C(=O)N2CCOCC2)N(C)C(=O)[C@H](C2CCCC2)N(C)C(=O)C2(CCCC2)NC(=O)[C@@H]2CCCN2C(=O)[C@H](CCc2ccc(C(F)(F)F)c(Cl)c2)NC(=O)CN(C)C(=O)[C@@H]1Cc1ccc(C(F)(F)F)cc1 [PP0168] ([NMeL]I[Aze][Aze][NPrPhe(4-CF3)][Sar][hPhe(3-Cl-4-CF3)]P[Ac5c][NMeGly(cPent)][NMeD]-Morpholide; lactam N-11)	C (A compound having a KD ratio of 0.1 or more and less than 3 is denoted as C)	B (a compound having 3 or more and less than 10 is denoted as B)	–	–	–	–
19.7 nM	–	CCO[C@@H]1C[C@H]2C(=O)NC3(CCC3)C(=O)N(C)[C@@H](C3CCCC3)C(=O)N(C)[C@H](C(=O)N(C)C)CC(=O)N(C)[C@@H](Cc3ccccc3)C(=O)N[C@@H]([C@@H](C)CC)C(=O)N(C)CC(=O)N(C)[C@H]3CCCCCN(C3=O)[C@@H](Cc3ccc(C(F)(F)F)cc3)C(=O)N(C)CC(=O)N[C@@H](CCc3cc(F)c(C(F)(F)F)c(F)c3)C(=O)N2C1 [PP0672]	–	–	B (a compound having 3 or more and less than 10 is denoted as B)	B (a compound having 3 or more and less than 10 is denoted as B)	–	–
5.3 nM	–	CCCN1C(=O)[C@@H]2CCN2C(=O)[C@@H]2CCCCN2C(=O)[C@H]([C@@H](C)CC)NC(=O)[C@H](CC(C)C)N(C)C(=O)C[C@@H](C(=O)N2CCOCC2)N(C)C(=O)[C@H](C2CCCC2)N(C)C(=O)C2(CCCC2)NC(=O)[C@@H]2CCCN2C(=O)[C@H](CCc2ccc(C(F)(F)F)c(Cl)c2)NC(=O)CN(C)C(=O)[C@@H]1Cc1ccc(C(F)(F)F)cc1 [PP0077] ([NMeL]I[Pip][Aze][NPrPhe(4-CF3)][Sar][hPhe(3-Cl-4-CF3)]P[Ac5c][NMeGly(cPent)][NMeD]-Morpholide; lactam N-11)	C (A compound having a KD ratio of 0.1 or more and less than 3 is denoted as C)	B (a compound having 3 or more and less than 10 is denoted as B)	–	–	–	–
